The text below walks through data of patent publication US9874563B2, “Detecting and quantifying cryptic HIV replication” (UNIVERSITY OF DELAWARE, priority 2012, dated 2018).

Each structure is given as a SMILES string. Several values for one entry are separate records, joined by “and”; a condition that tells them apart may be missing. Equal values may be shown once. Some results are limits rather than exact numbers.

Experiment [1] has as its system HIV. As to the kind of experiment: Model fit of 2-LTR dynamics following raltegravir intensification (nonlinear mixed-effects, Bayesian MCMC). Set-up: species or system human. An excerpt:
Previous work has been done on identifying HIV model parameters from experiments involving the use of integrase inhibitors. These models, however, considered only standard viral load measurements, not measurements of 2-LTR circle frequency. We introduce a simple model of the dynamics of the concentrations of actively infected cells y(t) and cells containing 2-LTR episomes c(t) in the site of episome formation. We model the behavior both in the absence of raltegravir uII=0 and in the presence of raltegravir uII=1.
The reproductive ratio of the virus prior to raltegravir intensification is R, and the reproductive ratio after raltegravir intensification is (1−ηII)R, where ηII is the effectiveness of raltegravir at interrupting infection events that would otherwise have occurred without intensification. The reproductive ratios are defined as the average number of infected cells created per infected cell in a single generation. If the virus was replicating efficiently prior to intensification (R0>1), then the measured R would be approximately equal to 1 at equilibrium, as the efficient replication would necessarily be target cell limited. If the infection is controlled prior to intensification (R0<1), then the measured reproductive ratio R will be approximately equal to R0.
2-LTR circles may also be formed at an integrase inhibitor-enhanced rate in the presence of raltegravir. The rate at which infection events are interrupted by raltegravir after intensification is ηIIRay which, when multiplied by the probability 0<kII<1 that the interruption of an infection even leads to the formation of a 2-LTR episome, gives us the rate of integrase inhibitor-enhances 2-LTR formation kIIηIIRay. φ≧0 is the ratio between the intrinsic rate and the raltegravir-enhanced rate of 2-LTR formation.
These dynamics can be written in the form of Equation 1: y=−(1−(1−ηIIuII)R)ay+ye ċ=φkII(1−ηIIuII)Ray+kIIηIIuIIRay−δc (1)
To reduce the parametric covariance, we introduced a re-parametrized parameter A=kIIye/δ to replace kIIye. […]
The posterior distribution of the parameter likelihood given the measured 2-LTR values was computed using a Bayesian Markov-Chain Monte-Carlo method with Gibbs Sampling, as in References 56, 75, 78 and 79 with noninformative prior distributions for the parameters as follows:
Markov-Chain Monte-Carlo methods were used to fit Equation 5 to the experimental data for 13 patients, with shared parameters {θ, δ} and patient-specific parameters {R; ηII, kIIye}, using the measurement uncertainty model described in the Materials and Methods section. […] The maximum-likelihood predicted 2-LTR concentrations for each patient, together with the 95% prediction interval, is shown compared to the measured data in FIG. 3.

In experiment [2] the test system is HIV 2-LTR circles. The note with it: cited from earlier work.
Experiment [3] has as its system HIV. The note with it: duration of the experiment; 13 patients of the experimental group; cited from earlier work.

As to `Cc1nnc(C(=O)NC(C)(C)c2nc(C(=O)NCc3ccc(F)cc3)c(O)c(=O)n2C)o1` [raltegravir], in experiment [1] (addition of raltegravir to HAART, interpretation of the 2-LTR data), the “effect on level of cryptic replication” value was “reduces the level of cryptic replication to undetectable levels”. Further, in experiment [1] (from 95% credible interval of φ), the “increase in likelihood of 2-LTR formation when raltegravir interrupts integration” value is 250-1000 times. In experiment [1] (maximum likelihood (posterior mode), patient-specific fitted parameter, one table row per patient), the “ηII (ratio-reduction in R following raltegravir intensification; drug efficacy of raltegravir), MLE” value was 0.01 (3×) and 0.19 and 0.02 and 0.49 and 0.77 and 0.05 and 0.03 and 0.79 and 0.81 and 0.99 and 0.08. In addition, in experiment [1] (posterior median, patient-specific fitted parameter, one table row per patient), the “ηII (ratio-reduction in R following raltegravir intensification; drug efficacy of raltegravir), Median” value is 0.78 and 0.21 and 0.02 and 0.53 (3×) and 0.74 and 0.38 and 0.04 and 0.39 and 0.50 and 0.55 and 0.12. Besides, the “patients with 2-LTR containing cells observed” value in experiment [2] (HAART intensified by raltegravir for 48 weeks, experimental group of 45) was 13/45 and 13 of the 45. In experiment [2] (week 0 (baseline at start of raltegravir intensification), individual HAART-suppressed patients, one table row per patient, censoring limit 1.20), the “2-LTR quantification, Week Post-Intensification 0” value was <1.20 2-LTR per 10^6 PBMC (7×) and 1.76 2-LTR per 10^6 PBMC and 38.62 2-LTR per 10^6 PBMC and 35.30 2-LTR per 10^6 PBMC and 9.98 2-LTR per 10^6 PBMC and 2.99 2-LTR per 10^6 PBMC. In addition, in experiment [2] (week 2 of raltegravir intensification, individual patients, one table row per patient, censoring limit 1.20), the “2-LTR quantification, Week Post-Intensification 2” value was 21.47 2-LTR per 10^6 PBMC and 48.16 2-LTR per 10^6 PBMC and 72.77 2-LTR per 10^6 PBMC and 30.55 2-LTR per 10^6 PBMC and 5.84 2-LTR per 10^6 PBMC and 12.98 2-LTR per 10^6 PBMC and 3.05 2-LTR per 10^6 PBMC and <1.20 2-LTR per 10^6 PBMC (4×) and 23.69 2-LTR per 10^6 PBMC and 1.98 2-LTR per 10^6 PBMC. The “2-LTR quantification, Week Post-Intensification 4” value in experiment [2] (week 4 of raltegravir intensification, individual patients, one table row per patient, censoring limit 1.20) is <1.20 2-LTR per 10^6 PBMC (3×) and 9.07 2-LTR per 10^6 PBMC and 5.37 2-LTR per 10^6 PBMC and 13.42 2-LTR per 10^6 PBMC and 3.19 2-LTR per 10^6 PBMC and 2.68 2-LTR per 10^6 PBMC and 24.75 2-LTR per 10^6 PBMC and 21.07 2-LTR per 10^6 PBMC and 3.03 2-LTR per 10^6 PBMC. For the same compound, in experiment [2] (week 12 of raltegravir intensification, individual patients, one table row per patient, censoring limit 1.20), the “2-LTR quantification, Week Post-Intensification 12” value is 10.38 2-LTR per 10^6 PBMC and 7.38 2-LTR per 10^6 PBMC and 1.26 2-LTR per 10^6 PBMC and <1.20 2-LTR per 10^6 PBMC (4×) and 1.61 2-LTR per 10^6 PBMC and 9.55 2-LTR per 10^6 PBMC and 39.64 2-LTR per 10^6 PBMC and 30.11 2-LTR per 10^6 PBMC. In experiment [2] (week 24 of raltegravir intensification, individual patients, one table row per patient, censoring limit 1.20), the “2-LTR quantification, Week Post-Intensification 24” value was 2.73 2-LTR per 10^6 PBMC and 2.20 2-LTR per 10^6 PBMC and <1.20 2-LTR per 10^6 PBMC (8×) and 1.88 2-LTR per 10^6 PBMC and 1.29 2-LTR per 10^6 PBMC. Besides, the “2-LTR quantification, Week Post-Intensification 48” value in experiment [2] (week 48 of raltegravir intensification, individual patients, one table row per patient, censoring limit 1.20) was <1.20 2-LTR per 10^6 PBMC (9×) and 7.04 2-LTR per 10^6 PBMC. In experiment [3], the plasma viral load result is given as “remained below the standard limit of detection”.
